pKd: −log10 of the molar value.
Biological target: T1, Human (6-His) Sortilin (Homo sapiens, UniProt Q99523)
T1 construct: 6-His; purchased RnD Systems
T1 sequence (Q99523 78-755 limits assumed): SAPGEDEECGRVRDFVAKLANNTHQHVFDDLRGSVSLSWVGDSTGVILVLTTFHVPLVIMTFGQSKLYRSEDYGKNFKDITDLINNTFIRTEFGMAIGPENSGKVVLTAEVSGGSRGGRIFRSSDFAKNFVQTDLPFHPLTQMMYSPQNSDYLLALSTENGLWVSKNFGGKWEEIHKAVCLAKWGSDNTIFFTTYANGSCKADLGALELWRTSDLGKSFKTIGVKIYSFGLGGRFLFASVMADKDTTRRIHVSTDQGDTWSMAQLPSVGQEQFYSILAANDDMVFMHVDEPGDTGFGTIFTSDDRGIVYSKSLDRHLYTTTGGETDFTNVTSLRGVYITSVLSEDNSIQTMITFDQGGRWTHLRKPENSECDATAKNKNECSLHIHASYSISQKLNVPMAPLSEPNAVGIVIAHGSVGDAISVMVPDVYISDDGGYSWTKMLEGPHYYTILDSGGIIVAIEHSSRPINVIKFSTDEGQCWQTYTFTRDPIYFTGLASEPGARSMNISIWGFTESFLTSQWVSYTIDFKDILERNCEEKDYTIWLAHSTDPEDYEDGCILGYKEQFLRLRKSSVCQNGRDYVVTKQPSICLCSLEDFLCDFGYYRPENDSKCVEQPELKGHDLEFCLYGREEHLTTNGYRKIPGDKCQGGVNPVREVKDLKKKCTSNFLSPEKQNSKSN
Test: Human Sortilin GCI (Grating-Coupled Interferometry) binding assay
Details: Creoptix WAVE-RAPID, single concentration, immobilised Human (6-His) Sortilin, 1:1 kinetic binding model; read-out: h-Sortilin GCI KD
Protocol: The exemplified compounds of the invention were tested in a Grating-Coupled Interferometry (GCI) Sortilin binding assay. The Equilibrium dissociation constant (KD) is a measure of the propensity of a complex (i.e: a ligand and receptor) to dissociate and is used to describe the affinity of an interaction between the constituents of the complex (i.e: a ligand and receptor). The skilled person will recognise that the lower the KD value, the less of the compound needed to achieve the desired effect, and as a result, the chances of undesirable off-target effects are reduced.
Compound affinity was determined by measuring the association and dissociation of compounds to Human (6-His) Sortilin (RnD Systems) using a Creoptix Wave instrument (Creoptix-Malvern Panalytical). Both Human (6-His) Sortilin immobilisation and compound evaluation were performed in HBS-N running buffer: 10 mM HEPES pH 7.4, 150 mM NaCl, 1% DMSO-Cytiva which was filtered and degassed for 15 minutes before use.
A 4PCH WAVEchip (Creoptix-Malvern Panalytical) was conditioned prior to immobilisation using 0.2×HBS-N running buffer with 0.1 M Borate pH 9.0, 1 M NaCl (Xantec Bioanalytics) injected across all flow cells. A buffer exchange was performed to 1×HBS-N running buffer and Human (6-His) Sortilin was immobilised in pH 5.0 Acetate solution (Cytiva) via amine coupling following EDC/NHS (Cytiva) surface activation and then passivated via injection of 50 mM Tris pH 7.4.
Compounds were tested in ‘WAVE-RAPID’ assays at a single concentration (usually: 1 μM, 10 µM or 100 µM) in time-response format (short pulses of increasing duration) using either ‘Weak-Binders’ (Settings: 400 μl/min flow rate, 40 Hz acquisition rate, 5 seconds association time and 20 seconds dissociation time) or ‘Intermediate Binders’ (Settings: 100 μl/min flow rate, 10 Hz acquisition rate, 25 seconds association time and 300 seconds dissociation time) settings. Which was deemed most appropriate was based upon the affinity and kinetics of the compound tested.
DMSO calibration was performed as per manufacturers requirements by injection of running buffer containing DMSO 0.5% above that of the running buffer DMSO (1.5% in that instance) every 20 cycles. All data was double referenced (blank and reference-channel subtracted) with KD values calculated by fitting to a ‘1:1 kinetic’ binding model using ‘WAVEcontrol’ software (Creoptix—Malvern Panalytical).

pKd	SMILES
4.91	CC(=O)NCC(=O)N[C@@](C)(CCC(C)(C)C)C(=O)O [Example 1, 2-(2-acetamidoacetamido)-2,5,5-trimethylhexanoic acid]
5.70	CC(=O)N[C@@H](Cc1ccccc1)C(=O)N[C@@](C)(CCC(C)(C)C)C(=O)O [Example 4, (2S)-2-[(2S)-2-acetamido-3-phenylpropanamido]-2,5,5-trimethylhexanoic acid]
5.33	CC(=O)N[C@@H](C)C(=O)N[C@@](C)(CCC(C)(C)C)C(=O)O [Example 2, (2S)-2-[(2S)-2-acetamidopropanamido]-2,5,5-trimethylhexanoic acid]
5.89	CC[C@H](C)[C@H](NC(C)=O)C(=O)N[C@@](C)(CCC(C)(C)C)C(=O)O [Example 3, (2S)-2-[(2S,3S)-2-acetamido-3-methylpentanamido]-2,5,5-trimethylhexanoic acid]

— patent US20260176245A1, “MODULATORS OF SORTILIN ACTIVITY” (Vesper Bio ApS, priority 2022, published 2026)
